Laboratory results published in PMC4871132 (Journal of chemical information and modeling, 2016).
Square brackets hold non-standard residues; d marks the D form. Peptide text beside a SMILES is read from it. * marks the point of attachment. ξ: configuration not given here. Cbz = O=C(OCc1ccccc1)*; ξM = CSCCC(N)C(=O)O

tested on: P. falciparum NF54 strain (PfNF54); assay: in vitro antiplasmodial assay, parasite lactate dehydrogenase assay; assay type: cell-based; settings: Plasmodium falciparum, NF54, read-out: PfNF54 IC50

IC50	SMILES
0.01 µM	C[C@H]1[C@H](OC(=O)CCC(=O)O)O[C@@H]2O[C@@]3(C)CC[C@H]4[C@H](C)CC[C@@H]1[C@@]24OO3 [Artesunate]
0.013 µM	CCN(CC)CCCC(C)Nc1ccnc2cc(Cl)ccc12 (stereo not shown) [Chloroquine]

molecular target: hDHODH (Homo sapiens, UniProt Q02127); assay: colorimetric DCIP human DHODH enzyme inhibition assay; assay type: biochemical; settings: from PfDHODH and hDHODH IC50
Sequence (Q02127 whole entry): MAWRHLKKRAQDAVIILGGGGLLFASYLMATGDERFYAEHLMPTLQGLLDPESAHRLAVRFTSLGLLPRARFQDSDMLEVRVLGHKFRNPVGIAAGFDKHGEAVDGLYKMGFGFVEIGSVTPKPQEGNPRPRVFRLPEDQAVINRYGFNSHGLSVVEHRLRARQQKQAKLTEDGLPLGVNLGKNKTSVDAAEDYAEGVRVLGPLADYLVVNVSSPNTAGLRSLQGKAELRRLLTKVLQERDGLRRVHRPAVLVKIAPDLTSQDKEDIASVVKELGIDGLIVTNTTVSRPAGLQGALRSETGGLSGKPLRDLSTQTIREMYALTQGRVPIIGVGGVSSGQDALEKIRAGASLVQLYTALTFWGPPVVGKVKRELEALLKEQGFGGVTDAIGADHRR

SMILES	species-selectivity for PfDHODH over hDHODH
CCOC(=O)C(=CNc1cccc(N(C)C)c1)C(=O)OCC [NSC336047]	highly species selective

same assay, conditions: read-out: hDHODH IC50

SMILES	IC50
CCOC(=O)C(=CNc1cccc(N(C)C)c1)C(=O)OCC [NSC336047]	> 100 µM

tested on: P. falciparum NF54 strain (PfNF54); assay: in vitro antiplasmodial assay, [3H] hypoxanthine incorporation assay; assay type: cell-based; settings: Plasmodium falciparum, NF54, read-out: PfNF54 IC50

IC50	SMILES
0.009 µM	C[C@H]1[C@H](OC(=O)CCC(=O)O)O[C@@H]2O[C@@]3(C)CC[C@H]4[C@H](C)CC[C@@H]1[C@@]24OO3 [Artesunate]
0.012 µM	CCN(CC)CCCC(C)Nc1ccnc2cc(Cl)ccc12 (stereo not shown) [Chloroquine]

molecular target: PfDHODH (Plasmodium falciparum, UniProt Q08210); assay: colorimetric DCIP PfDHODH enzyme inhibition assay; assay type: biochemical; settings: not given
Sequence (Q08210 24-569): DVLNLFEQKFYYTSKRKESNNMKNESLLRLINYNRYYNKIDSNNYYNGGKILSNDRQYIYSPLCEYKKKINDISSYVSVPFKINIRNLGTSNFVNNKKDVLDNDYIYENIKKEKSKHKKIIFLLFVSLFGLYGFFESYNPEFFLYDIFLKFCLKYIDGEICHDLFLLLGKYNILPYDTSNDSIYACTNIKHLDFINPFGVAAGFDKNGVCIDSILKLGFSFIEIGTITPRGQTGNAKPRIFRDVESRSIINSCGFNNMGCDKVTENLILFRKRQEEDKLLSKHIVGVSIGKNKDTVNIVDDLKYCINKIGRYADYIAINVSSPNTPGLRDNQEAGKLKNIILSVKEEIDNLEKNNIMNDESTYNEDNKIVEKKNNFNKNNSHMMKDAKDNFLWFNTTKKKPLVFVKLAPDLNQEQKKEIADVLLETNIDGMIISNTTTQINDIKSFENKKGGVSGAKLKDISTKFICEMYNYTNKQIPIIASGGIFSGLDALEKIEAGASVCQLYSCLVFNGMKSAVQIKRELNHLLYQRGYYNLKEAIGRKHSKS

SMILES	PfDHODH inhibition, result in words
CCOC(=O)CSC(=S)Nc1ccc(Cl)cc1 [NSC85749]	moderately active at concentrations above 30 μM

same assay, conditions: 10 μM compound

SMILES	% PfDHODH Inhibition at 10 μM
C=CCN(CC(O)CO)c1ccccc1 (stereo not shown) [NSC58504]	26%
COC(=O)C(CC(=O)c1ccc2ccccc2c1)OC (stereo not shown) [NSC72405]	30%
CCOC(=O)C(Cc1c[nH]c2ccc([N+](=O)[O-])cc12)C(=O)OCC [NSC85231]	28%
CCOC(=O)CSC(=S)Nc1ccc(Cl)cc1 [NSC85749]	46%
CSCCC(NC(=O)COc1ccc(Cl)cc1Cl)C(=O)O (stereo not shown) [NSC87887]	28%
CSCCC(NC(=O)OCc1ccccc1)C(=O)NCC(=O)O (stereo not shown) [NSC89636] (Cbz-[ξM]-Gly-OH)	26%
CCOC(=O)C(=CNc1cc(Cl)ccc1Cl)C(=O)OCC [NSC137121]	0%
CCOC(=O)c1cnc(SC)nc1Nc1ccc(Cl)cc1 [NSC165287]	11%
CCOC(=O)C(=CNc1cccc(N(C)C)c1)C(=O)OCC [NSC336047]	93%
CCOC(=O)C(=CNc1cccc2c(O)cccc12)C(=O)OCC [NSC340225]	3%
CCOC(=O)/C(C#N)=C/NCCc1c[nH]c2ccccc12 [NSC343533]	50%
O=NN(CCCl)C(=O)Nc1ccc2[nH]c3ccccc3c2c1 [NSC 116824]	3%

same assay, conditions: 10 μM compound; 10 µM

SMILES	% PfDHODH Inhibition at 10 μM
CCOC(=O)C(=CNc1ccc2c(c1)OCO2)C(=O)OCC [NSC332161]	63%

same assay, conditions: read-out: PfDHODH IC50

SMILES	IC50
COC(=O)C(CC(=O)c1ccc2ccccc2c1)OC (stereo not shown) [NSC72405]	> 100 µM
CCOC(=O)CSC(=S)Nc1ccc(Cl)cc1 [NSC85749]	> 100 µM
CCOC(=O)C(=CNc1ccc2c(c1)OCO2)C(=O)OCC [NSC332161]	5.1 µM
CCOC(=O)C(=CNc1cccc(N(C)C)c1)C(=O)OCC [NSC336047]	0.38 µM
CCOC(=O)/C(C#N)=C/NCCc1c[nH]c2ccccc12 [NSC343533]	20 µM
